Patent US10059701B2 (Merck Patent GmbH, priority 2015, dated 2018)
pIC50: −log10 of the molar value.

What was measured:
IRAK4 = target: T1, IRAK4 (Homo sapiens, UniProt Q9NWZ3); assay: IRAK4 enzymatic assay (ADP-Glo luminescence); assay type: biochemical; settings: purified human recombinant His-TEV-IRAK4 (1-460), ATP 2 μM
T1 construct: His-TEV-IRAK4 (1-460); His (N); TEV cleavage site (N)
T1 sequence (Q9NWZ3 1-460): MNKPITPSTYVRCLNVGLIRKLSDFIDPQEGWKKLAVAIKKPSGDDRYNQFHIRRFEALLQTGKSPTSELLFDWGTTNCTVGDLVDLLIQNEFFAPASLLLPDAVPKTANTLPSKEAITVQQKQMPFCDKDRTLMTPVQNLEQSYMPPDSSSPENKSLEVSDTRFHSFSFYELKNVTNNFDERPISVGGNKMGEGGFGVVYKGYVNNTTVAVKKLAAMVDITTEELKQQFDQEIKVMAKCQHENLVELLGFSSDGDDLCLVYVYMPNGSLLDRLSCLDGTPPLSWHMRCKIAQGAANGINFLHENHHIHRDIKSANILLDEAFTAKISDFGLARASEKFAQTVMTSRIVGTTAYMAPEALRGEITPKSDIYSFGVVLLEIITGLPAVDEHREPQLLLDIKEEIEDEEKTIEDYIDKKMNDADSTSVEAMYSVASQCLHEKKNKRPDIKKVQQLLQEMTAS
In short: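 Recombinant His-TEV-IRAK4 (1-460) at 0.3 μg/ml preincubated 15 min at RT with compounds (10 μM to 0.5 nM) in Hepes pH 7.0 buffer with MgCl2/MnCl2. Reaction started with 2 μM ATP and 300 nM STK1-biotin peptide, run 2 h at RT. ADP formed read by ADP-Glo luminescence.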

IRAK1 = target: T2, IRAK1 (Homo sapiens, UniProt P51617); assay: IRAK1 enzymatic assay (ADP-Glo luminescence); assay type: biochemical; settings: purified human recombinant His-TEV-IRAK1 (194-712)
T2 construct: His-TEV-IRAK1 (194-712); His (N); TEV cleavage site (N)
T2 sequence (P51617 194-712): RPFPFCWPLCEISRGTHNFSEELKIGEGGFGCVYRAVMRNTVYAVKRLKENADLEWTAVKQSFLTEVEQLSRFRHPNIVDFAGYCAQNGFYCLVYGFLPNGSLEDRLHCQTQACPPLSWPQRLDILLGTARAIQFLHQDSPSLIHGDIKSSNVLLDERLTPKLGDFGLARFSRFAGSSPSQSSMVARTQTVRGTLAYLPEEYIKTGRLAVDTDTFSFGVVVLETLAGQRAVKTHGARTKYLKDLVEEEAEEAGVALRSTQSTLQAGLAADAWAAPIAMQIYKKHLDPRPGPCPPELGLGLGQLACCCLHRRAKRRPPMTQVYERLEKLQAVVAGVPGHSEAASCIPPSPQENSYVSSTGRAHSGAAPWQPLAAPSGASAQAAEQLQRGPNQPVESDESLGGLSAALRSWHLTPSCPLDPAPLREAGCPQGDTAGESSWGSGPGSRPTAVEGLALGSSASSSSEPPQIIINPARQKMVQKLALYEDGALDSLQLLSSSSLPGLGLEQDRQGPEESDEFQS
In short: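 Recombinant human His-TEV-IRAK1 (194-712), 0.3 μg/ml, preincubated 15 min at RT with compounds (10 μM to 0.5 nM) in 50 mM Hepes pH 7.0, 10 mM MgCl2, 2 mM DTT, 0.1% BSA. ATP-started reaction run 2 hours at RT; ADP formed from ATP hydrolysis/autophosphorylation read by ADP-Glo luminescence.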

Compound	pIC50 (IRAK4)	pIC50 (IRAK1)
COc1cc2c(cc1N1CCOCC1=O)[nH]/c(=N\C(=O)c1cccc(C(F)(F)F)c1)n2[C@H](C)CCO [Compound 143, (R,E)-N-(1-(4-hydroxybutan-2-yl)-6-methoxy-5-(3-oxomorpholino)-1H-benzo[d]imidazol-2(3H)-ylidene)-3-(trifluoromethyl)benzamide]	≥ 7.00	6.00 to 7.00
O=C(/N=c1\[nH]c2cc(N3CCCOC3=O)ccc2n1[C@@H]1C[C@H]1CO)c1cccc(C(F)(F)F)c1 (racemic) [Compound 144, rac-(E)-N-(1-((1R,2R)-2-(hydroxymethyl)cyclopropyl)-5-(2-oxo-1,3-oxazinan-3-yl)-1H-benzo[d]imidazol-2(3H)-ylidene)-3-(trifluoromethyl)benzamide]	≥ 7.00	< 6.00
N#Cc1cccc(C(=O)/N=c2\[nH]c3cc(N4CCCOC4=O)ccc3n2CC2(F)CCOCC2)c1 [Example 230, (E)-3-cyano-N-(1-((4-fluorotetrahydro-2H-pyran-4-yl)methyl)-5-(2-oxo-1,3-oxazinan-3-yl)-1H-benzo[d]imidazol-2(3H)-ylidene)benzamide]	≥ 7.00	6.00 to 7.00
O=C(/N=c1\[nH]c2cc(N3CCOCC3=O)ccc2n1[C@H]1CC[C@@H](O)CC1)c1cccc(C(F)F)c1 [Compound 56, cis-(E)-3-(difluoromethyl)-N-(1-(4-hydroxycyclohexyl)-5-(3-oxomorpholino)-1H-benzo[d]imidazol-2(3H)-ylidene)benzamide]	≥ 7.00	≥ 7.00
O=C(/N=c1\[nH]c2cc(N3CCN(CC4CC4)CC3=O)ccc2n1CCCO)c1cccc(C(F)F)c1 [Compound 112, (E)-N-(5-(4-(cyclopropylmethyl)-2-oxopiperazin-1-yl)-1-(3-hydroxypropyl)-1H-benzo[d]imidazol-2(3H)-ylidene)-3-(difluoromethyl)benzamide]	≥ 7.00	≥ 7.00
Cn1cnn(-c2ccc3c(c2)[nH]/c(=N\C(=O)c2cccc(C(F)(F)F)c2)n3CCCO)c1=O [Compound 188, (E)-N-(1-(3-hydroxypropyl)-5-(4-methyl-5-oxo-4,5-dihydro-1H-1,2,4-triazol-1-yl)-1H-benzo[d]imidazol-2(3H)-ylidene)-3-(trifluoromethyl)benzamide]	≥ 7.00	6.00 to 7.00
O=C(O)CCCn1/c(=N/C(=O)c2cccc(C(F)(F)F)c2)[nH]c2cc(N3CCCOC3=O)ccc21 [Compound 168, (E)-4-(5-(2-oxo-1,3-oxazinan-3-yl)-2-((3-(trifluoromethyl)benzoyl)imino)-2,3-dihydro-1H-benzo[d]imidazol-1-yl)butanoic acid]	≥ 7.00	< 6.00
O=C(/N=c1\[nH]c2cc(N3CCOCC3=O)ccc2n1C1(CO)CCCCC1)c1cccc(C(F)(F)F)c1 [Compound 39, (E)-N-(1-(1-(hydroxymethyl)cyclohexyl)-5-(3-oxomorpholino)-1H-benzo[d]imidazol-2(3H)-ylidene)-3-(trifluoromethyl)benzamide]	< 6.00	< 6.00
CS(=O)(=O)N1CCC(n2/c(=N/C(=O)c3cccc(C(F)(F)F)c3)[nH]c3cc(N4CCOCC4=O)ccc32)CC1 [Compound 132, (E)-N-(1-(1-(methylsulfonyl)piperidin-4-yl)-5-(3-oxomorpholino)-1H-benzo[d]imidazole-2(3H)-ylidene)-3-(trifluoromethyl)benzamide]	≥ 7.00	6.00 to 7.00
O=C(/N=c1\[nH]c2cc(N3CCOCC3=O)ccc2n1C1CCS(=O)(=O)CC1)c1cccc(C(F)(F)F)c1 [Compound 136, (E)-N-(1-(1,1-dioxidotetrahydro-2H-thiopyran-4-yl)-5-(3-oxomorpholino)-1H-benzo[d]imidazol-2(3H)-ylidene)-3-(trifluoromethyl)benzamide]	≥ 7.00	6.00 to 7.00
COc1cc2c(cc1N1CCOCC1=O)[nH]/c(=N\C(=O)c1cccc(C(F)F)c1)n2[C@H](C)CCO [Compound 40, (R,E)-3-(difluoromethyl)-N-(1-(4-hydroxybutan-2-yl)-6-methoxy-5-(3-oxomorpholino)-1H-benzo[d]imidazol-2(3H)-ylidene)benzamide]	≥ 7.00	≥ 7.00
O=C1C[C@H](n2/c(=N/C(=O)c3cccc(C(F)(F)F)c3)[nH]c3cc(N4CCCOC4=O)ccc32)CN1 [Compound 154, (S,E)-N-(5-(2-oxo-1,3-oxazinan-3-yl)-1-(5-oxopyrrolidin-3-yl)-1H-benzo[d]imidazol-2(3H)-ylidene)-3-(trifluoromethyl)benzamide]	6.00 to 7.00	< 6.00
N#Cc1cccc(C(=O)/C=C2\Nc3cc(N4CCOCC4=O)ccc3N2CCCO)c1 [Compound 146, (E)-3-(2-(1-(3-hydroxypropyl)-5-(3-oxomorpholino)-1H-benzo[d]imidazol-2(3H)-ylidene)acetyl)benzonitrile]	6.00 to 7.00	6.00 to 7.00

The next lines start with the values.

pIC50 (IRAK4)	pIC50 (IRAK1)	Compound
≥ 7.00	6.00 to 7.00	Cc1cc2c(cc1N1CCOCC1=O)[nH]/c(=N\C(=O)c1cccc(C#N)c1)n2CCCO [Compound 68, (E)-3-cyano-N-(1-(3-hydroxypropyl)-6-methyl-5-(3-oxomorpholino)-1H-benzo[d]imidazol-2(3H)-ylidene)benzamide]
≥ 7.00	≥ 7.00	O=C(/N=c1\[nH]c2cc(N3CCOCC3=O)ccc2n1CCCCO)c1cccc(C(F)F)c1 [Compound 26, (E)-3-(difluoromethyl)-N-(1-(4-hydroxybutyl)-5-(3-oxomorpholino)-1H-benzo[d]imidazol-2(3H)-ylidene)benzamide]
≥ 7.00	6.00 to 7.00	C[C@H](CCO)n1/c(=N/C(=O)c2cccc(C#N)c2)[nH]c2cc(N3CCOCC3=O)ccc21 [Compound 10, (R,E)-3-cyano-N-(1-(4-hydroxybutan-2-yl)-5-(3-oxomorpholino)-1H-benzo[d]imidazol-2(3H)-ylidene)benzamide]
≥ 7.00	≥ 7.00	O=C(/N=c1\[nH]c2cc(N3CCOCCC3=O)ccc2n1CCCO)c1cccc(C(F)F)c1 [Example 187, (E)-3-(difluoromethyl)-N-(1-(3-hydroxypropyl)-5-(5-oxo-1,4-oxazepan-4-yl)-1H-benzo[d]imidazol-2(3H)-ylidene)benzamide]
≥ 7.00	6.00 to 7.00	O=C(/N=c1\[nH]c2cc(N3CCCNC3=O)ccc2n1CCCO)c1cccc(C(F)(F)F)c1 [Compound 1, (E)-N-(1-(3-hydroxypropyl)-5-(2-oxotetrahydropyrimidin-1(2H)-yl)-1H-benzo[d]imidazol-2(3H)-ylidene)-3-(trifluoromethyl)benzamide]
≥ 7.00	≥ 7.00	O=C(/N=c1\[nH]c2cc(N3CCCOCC3=O)ccc2n1CCCO)c1cccc(C(F)F)c1 [Example 186, (E)-3-(difluoromethyl)-N-(1-(3-hydroxypropyl)-5-(3-oxo-1,4-oxazepan-4-yl)-1H-benzo[d]imidazol-2(3H)-ylidene)benzamide]
≥ 7.00	≥ 7.00	O=C(/N=c1\[nH]c2cc(N3CCCOCC3=O)ccc2n1CCCO)c1cccc(C(F)(F)F)c1 [Compound 193, (E)-N-(1-(3-hydroxypropyl)-5-(3-oxo-1,4-oxazepan-4-yl)-1H-benzo[d]imidazol-2(3H)-ylidene)-3-(trifluoromethyl)benzamide]
6.00 to 7.00	< 6.00	Cn1cnc2ccc(C(=O)/N=c3\[nH]c4cc(N5CCOCC5=O)ccc4n3CCCO)cc21 [Compound 20, (E)-N-(1-(3-hydroxypropyl)-5-(3-oxomorpholino)-1H-benzo[d]imidazol-2(3H)-ylidene)-1-methyl-1H-benzo[d]imidazole-6-carboxamide]
≥ 7.00	6.00 to 7.00	O=C(/N=c1\[nH]c2cc(N3CCOCCC3=O)ccc2n1CCCO)c1cccc(C(F)(F)F)c1 [Compound 192, (E)-N-(1-(3-hydroxypropyl)-5-(5-oxo-1,4-oxazepan-4-yl)-1H-benzo[d]imidazol-2(3H)-ylidene)-3-(trifluoromethyl)benzamide]
≥ 7.00	6.00 to 7.00	N#Cc1cccc(C(=O)/N=c2\[nH]c3cc(N4CCOCC4=O)c(Br)cc3n2CCCO)c1 [Compound 48, (E)-N-(6-bromo-1-(3-hydroxypropyl)-5-(3-oxomorpholino)-1H-benzo[d]imidazol-2(3H)-ylidene)-3-cyanobenzamide]
≥ 7.00	≥ 7.00	CNS(=O)(=O)c1cccc(C(=O)/N=c2\[nH]c3cc(N4CCOCC4=O)ccc3n2CCCO)c1 [Compound 97, (E)-N-(1-(3-hydroxypropyl)-5-(3-oxomorpholino)-1H-benzo[d]imidazol-2(3H)-ylidene)-3-(N-methylsulfamoyl)benzamide]
